These results are taken from patent US6495358B1, “Sulfamide and bis-sulfamide amino acid derivatives as inhibitors of proteolytic enzymes” (Wichita State University, priority 2000, dated 2002).

A word on the Ki: it is the equilibrium dissociation constant of an inhibitor or competing ligand from its target.

Experiment [1] addresses T1, human leukocyte elastase (HLE) (Homo sapiens, UniProt P08246).
T1 sequence (P08246 30-247 limits assumed): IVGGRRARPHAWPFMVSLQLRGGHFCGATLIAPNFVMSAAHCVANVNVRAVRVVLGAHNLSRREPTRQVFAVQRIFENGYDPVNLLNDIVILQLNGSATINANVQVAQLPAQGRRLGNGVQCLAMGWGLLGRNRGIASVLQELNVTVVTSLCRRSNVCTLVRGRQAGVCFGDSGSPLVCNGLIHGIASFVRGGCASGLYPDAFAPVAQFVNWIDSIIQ
The experiment in a line: Human leukocyte elastase (HLE) inhibition assay, Dixon plot. It is filed as biochemical. Conditions: competitive inhibition conditions, substrate MeOSuc-AAPV-pNA, 0.1 M HEPES pH 7.25, 25° C., read-out: K1 or % Inhibition (Ki), Elastase (HLE). The source says: Screening of compounds for protease activity is known in the art. The human leukocyte elastase (HLE), cathepsin G (Cat G) and proteinase 3 (PR3) assays have each been described in detail; see, Groutas et al. Biochemistry 36:4739 (1997). Chymase assay has also been previously reported; see, Schechter, et al., J. Biol. Chem. 268:23626 (1993).
The substrates and buffers used in the assay inhibition studies with human leukocyte elastase (HLE), cathepsin G (Cat G), proteinase 3 (PR3) (Groutas, W. C., et al., Biochemistry 36:4739 (1997) and chymase (Groutas, W. C. et al., Bioorg. Med. Chem. Lett. 9:2199 (1999) were as follows: HLE, MeOSuc-AAPV-pNA, 0.1 M HEPES buffer, pH, 7.25 in 1-5% DMSO; Cat G, Suc-AAPF-pNA, 0.1 M HEPES buffer, pH 7.5; PR3, Boc-L-Ala p-mitrophenyl ester, 0.1 M phosphate buffer, pH 6.5; chymase, Suc-AAPF-pNA, 0.45 Tris buffer, 1.8 M Na Cl, pH 8.03 and 2% DMSO. All assays were carried out at 25° C. and for all enzymes the absorbance was monitored at 410 nm, except PR 3 (348 nm).
The inhibitory activity of compound 15 toward HLE was determined under competitive inhibition conditions. (Dixon, M. Biochem. J. 20 55:70-71 (1953)). Human leukocyte elastase (HLE assay has been described in detail; see, Groutas et al. Biochemistry 36:4739 (1997).

A further experiment addresses T2, Thermolysin (Bacillus thermoproteolyticus, UniProt P00800).
T2 sequence (P00800 233-548): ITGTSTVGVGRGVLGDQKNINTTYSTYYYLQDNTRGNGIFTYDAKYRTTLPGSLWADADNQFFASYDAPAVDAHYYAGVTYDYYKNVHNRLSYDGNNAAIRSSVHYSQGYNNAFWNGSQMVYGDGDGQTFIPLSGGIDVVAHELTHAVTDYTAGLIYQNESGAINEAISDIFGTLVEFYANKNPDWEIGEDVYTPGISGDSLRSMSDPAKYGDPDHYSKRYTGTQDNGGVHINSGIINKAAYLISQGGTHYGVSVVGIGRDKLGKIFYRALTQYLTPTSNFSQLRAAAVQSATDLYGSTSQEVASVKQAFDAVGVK
The experiment in a line: Thermolysin inhibition assay with N-[3-[2-Furyl]acryloyl]-Gly-L-Leu-NH2 as substrate. Conditions: 0.1 M Tris-HCl pH 7.2, 25° C. It is filed as biochemical. How it is done: Thermolysin activity with or without inhibitor was measured using N-[3-[2-Furyl]acryloyl]-Gly-L-Leu-NH2 as substrate (Walsh, K. A. et al. Methods Enzymol.34:435 (1974; Nishino, N. et al. Biochemistry 17:2846 (1978). The substrate solution in 0.1 M Tris-HCl buffer (pH 7.2) containing 2% DMF was added to thermolysin in 0.1 M Tris-HCl, ph 7.2, containing 10 mM CaCl2 and the decrease in absorbance at 345 nm was monitored using a Hewlett-Packard diode array UV/VIS spectrophotometer at 25° C. Percent inhibition and/or K1 values were determined from Dixon plots (Dixon, M. Biochem, J. 55:70 (1953) at two different substrate concentrations.
The inhibitory activity of compound 20 and 30 toward thermolysin was determined under competitive inhibition conditions. Thermolysin activity with or without inhibitor was measured using N-[3-[2-Furyl]acryloyl]-Gly-L-Leu-NH2 as substrate (Walsh, K. A. et al. Methods Enzymol.34:435 (1974); Nishino, N. et al. Biochemistry 17:2846 (1978)).

For the molecule `CC(C)CC(C=O)N(Cc1ccccc1)S(=O)(=O)N(C)C` (stereo not drawn) [Compound 15, N-benzyl-N-(1-formyl-3-methylbutyl)-N′,N′-dimethylfulfamide], the Ki in experiment [1] worked out at 21 µM.

As for `CN(C)S(=O)(=O)N(CC(=O)NO)Cc1ccccc1` [Compound 20, N^2-benzyl-N^2-[(dimethylamino)sulfonyl]-N^1-hydroxyglycinabmide], on Thermolysin (competitive inhibition conditions, Dixon plots at two substrate concentrations, read-out: K1 or % Inhibition (Ki), Thermolysin), the Ki was 1.2 µM.

With `CC(C)C[C@@H](C(=O)NO)N(Cc1ccccc1)S(N)(=O)=O` [Compound 40], on Thermolysin (inhibitor concentration not given), the “K1 or % Inhibition (% inhibition), Thermolysin” value was found to be 26% inhibition.
